Test results: article PMC9254107, “The Toxoplasma glucan phosphatase TgLaforin utilizes a distinct functional mechanism that can be exploited by therapeutic inhibitors” (The Journal of Biological Chemistry, 2022)

What was measured:
TgLaforin [1] = target: T1, TgLaforin (Toxoplasma gondii, UniProt S8F2K7); experiment: Malachite green phosphatase assay, phosphate release from solubilized potato amylopectin; format: biochemical
T1 sequence (S8F2K7 1-523): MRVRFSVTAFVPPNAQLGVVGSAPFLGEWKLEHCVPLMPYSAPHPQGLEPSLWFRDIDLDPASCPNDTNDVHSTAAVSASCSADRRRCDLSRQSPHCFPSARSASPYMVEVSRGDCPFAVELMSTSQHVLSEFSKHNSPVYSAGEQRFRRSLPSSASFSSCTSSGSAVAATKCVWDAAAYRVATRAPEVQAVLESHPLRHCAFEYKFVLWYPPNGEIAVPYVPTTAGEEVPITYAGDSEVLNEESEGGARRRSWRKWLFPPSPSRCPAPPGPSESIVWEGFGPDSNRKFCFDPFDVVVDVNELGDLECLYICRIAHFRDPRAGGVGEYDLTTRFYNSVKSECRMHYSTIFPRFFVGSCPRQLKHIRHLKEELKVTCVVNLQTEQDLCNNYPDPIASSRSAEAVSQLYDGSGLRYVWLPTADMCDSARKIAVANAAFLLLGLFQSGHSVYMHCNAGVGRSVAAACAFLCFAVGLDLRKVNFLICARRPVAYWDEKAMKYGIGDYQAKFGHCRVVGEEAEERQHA
Protocol: Release of phosphate from potato amylopectin was determined as done previously ([23], [24], [42], [93]) with the following modifications. Briefly, phosphate release was monitored using the PiColorLock Phosphate Detection Reagent (Novus Biologicals), a malachite green–based assay. For time course assays, 5 nM recombinant protein was incubated with 90 μg solubilized potato amylopectin (Sigma-Aldrich), supplied as a powder; solubilized at a stock concentration of 5 mg/ml using alcohol/alkaline method (also referred to as the “Roach method” in Ref. ([93])) in phosphatase buffer in a final volume of 80 μl at pH 6.5. […] After 5 min, 8 μl stabilizer solution (0.1 initial reaction volume) was added, and reaction was allowed to develop for 30 min at r.t. before the absorbance of each reaction was measured at 635 nm using a Synergy HTX Multi-Mode Reader (BioTek). Absorbance was converted to pmol Pi release using a Pi absorbance standard curve. […]
(§1) L319-M21-M49 stock solutions were prepared by resuspending the inhibitor in DMSO at a concentration of 20 mM. […] The efficacy of L319-M21-M49 against various phosphatases was determined using the assay conditions described above. […] All reported uncertainties in IC50 values were calculated and presented as standard deviation from the mean of at least three independent replicates, each consisting of three technical replicates. […]

TgLaforin [2] = target: T1, TgLaforin; experiment: Radiolabeled (33P) starch phosphatase assay; format: biochemical; settings: 33P-labeled insoluble starch
Protocol: Position-dependent phosphate release from ^33P-labeled starch was performed as previously described ([36], [41], [42], [43]). The substrate for this assay was generated by phosphorylating phosphate-free Arabidopsis sex1-3 starch with β^33P-labeled ATP (Hartmann Analytic) at the C6 and C3 positions sequentially. The starch granules were phosphorylated at the C6 position using purified recombinant StGWD enzyme. Next, the granules were phosphorylated at the C3 position using purified recombinant AtPWD enzyme.
To determine the site-specificity of TgLaforin, TgLaforin (1.3 nM) was incubated separately with 0.6 mg both C6- and C3-^33P-labeled starch in phosphatase buffer (pH 6.5) containing 1 mg/ml bovine serum albumin in a final volume of 150 μl. […] The amount of phosphate released from each starch suspension was quantified by measuring counts per minute (CPM) of the supernatant on a 1900 TR liquid scintillation counter (Packard). […]
as §1

TgLaforin [3] = target: T1, TgLaforin; experiment: Library screening at 10 μM; format: biochemical
TgLaforin [4] = target: T1, TgLaforin; experiment: pNPP phosphatase assay
PTP1B = target: T2, PTP1B (Homo sapiens, UniProt P18031); experiment: Library screening at 10 μM; settings: read-out: inhibition of PTP1B
T2 sequence (P18031 1-435): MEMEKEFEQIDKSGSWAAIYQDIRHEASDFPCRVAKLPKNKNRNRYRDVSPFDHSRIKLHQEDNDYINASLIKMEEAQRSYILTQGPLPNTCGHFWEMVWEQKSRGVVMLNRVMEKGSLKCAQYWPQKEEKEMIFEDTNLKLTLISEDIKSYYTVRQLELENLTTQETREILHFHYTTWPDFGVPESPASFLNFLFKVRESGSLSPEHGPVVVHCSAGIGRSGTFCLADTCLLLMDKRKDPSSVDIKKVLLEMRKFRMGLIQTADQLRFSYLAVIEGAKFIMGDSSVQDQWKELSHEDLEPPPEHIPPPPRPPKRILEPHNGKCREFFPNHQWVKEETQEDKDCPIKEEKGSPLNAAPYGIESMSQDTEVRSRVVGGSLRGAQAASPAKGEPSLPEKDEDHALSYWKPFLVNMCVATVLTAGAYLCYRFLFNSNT

VHR = VHR (Homo sapiens, UniProt P51452); experiment: Library screening at 10 μM; settings: read-out: inhibition of VHR
TgCBM = TgCBM (Toxoplasma gondii, UniProt S8F2K7); experiment: Differential scanning fluorimetry carbohydrate binding
Protocol: We next analyzed TgCBM using size-exclusion chromatography coupled with multiangle light scattering (SEC-MALS) to define its oligomerization state. […] To define TgCBM carbohydrate binding, we utilized differential scanning fluorimetry (DSF) ([53], [54]). In the presence of a carbohydrate, an increase in Tm is associated with increased protein stability due to protein–ligand interaction. We incubated TgCBM with the linear oligosaccharide maltohexaose and observed a robust dose-dependent stabilization of TgCBM with an Kd,app = 20 ± 4 mM (Fig. 3E).

TgCBM K206A = experiment: as above; settings: DSF
TgCBM W278A = experiment: as above; settings: DSF

Sequence of VHR (P51452 whole entry, species assumed): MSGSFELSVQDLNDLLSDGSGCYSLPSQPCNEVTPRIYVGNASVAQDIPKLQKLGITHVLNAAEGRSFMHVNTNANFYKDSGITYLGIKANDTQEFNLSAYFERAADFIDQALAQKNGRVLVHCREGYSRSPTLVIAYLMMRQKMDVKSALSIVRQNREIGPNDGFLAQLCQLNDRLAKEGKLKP

inhibition at 10 µM (PTP1B) [%] | inhibition at 10 µM (VHR) [%] | SMILES | IC50 (TgLaforin [1]) [µM] | IC50 (TgLaforin [2]; C3, read-out: IC50 phosphate release from C3 position of starch) [µM] | IC50 (TgLaforin [2]; C6, read-out: IC50 phosphate release from C6 position of starch) [µM] | inhibition at 10 µM (TgLaforin [3]) [%] | IC50 (TgLaforin [4]) [µM] | specificity for TgLaforin over other phosphatases (TgLaforin [4]; pNPP assay, other phosphatases VHR, PTP1B, CIP) [fold] | mechanism of inhibition (Lineweaver-Burk plot) (TgLaforin [4]; pNPP substrate) | Kd (TgCBM) [µM] | binding to K206A mutant (TgCBM K206A) | binding to W278A mutant (TgCBM W278A)
< 10 | < 10 | O=C(Nc1ccc(Oc2ccccc2)cc1)C(=O)Nc1ccccc1NC(=O)C(c1ccccc1)S(=O)(=O)O (stereo not drawn) [L319-21-M49, 2-oxo-2-((2-(2-oxo-2-((4-phenoxyphenyl)amino)acetamido)phenyl)amino)-1-phenylethanesulfonic acid] | 5.1 ± 0.4 | 6.7 ± 0.1 | 6.5 ± 1.4 | > 90 | 1.5 ± 0.3 | > 100 | competitive inhibitor |  |  | 
 |  | OC[C@H]1O[C@H](O[C@H]2[C@H](O)[C@@H](O)[C@@H](O[C@H]3[C@H](O)[C@@H](O)[C@@H](O[C@H]4[C@H](O)[C@@H](O)[C@@H](O[C@H]5[C@H](O)[C@@H](O)[C@@H](O[C@H]6[C@H](O)[C@@H](O)C(O)O[C@@H]6CO)O[C@@H]5CO)O[C@@H]4CO)O[C@@H]3CO)O[C@@H]2CO)[C@H](O)[C@@H](O)[C@@H]1O (stereo partly drawn) [maltohexaose] |  |  |  |  |  |  |  | 20000 ± 4000 | neither mutant was able to bind | neither mutant was able to bind
